# From PubChem BioAssay (NCI)
#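 Method: 48-hour compound exposure of cells in 96-well plates, five concentrations, linear interpolation of endpoints. At the GI50, growth is halved. The concentration for full growth arrest is given as TGI.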
# Assays:
# Assay in all cases: NCI anticancer screen, dose series, 48 h
# [1] = system: MALME-3M melanoma
# [2] = system: COLO 205 colon
# [3] = system: RPMI-8226 leukemia
# [4] = system: HS 578T breast
# [5] = system: MDA-MB-231 breast
# [6] = system: DU-145 prostate
# [7] = system: K-562 leukemia
# [8] = system: SNB-75 CNS
# [9] = system: SW-620 colon
# [10] = system: BT-549 breast
# [11] = system: EKVX NSCLC
# [12] = system: KM12 colon
# [13] = system: UACC-257 melanoma
# [14] = system: SF-539 CNS
# [15] = system: SF-295 CNS
# [16] = system: SF-268 CNS
# [17] = system: MOLT-4 leukemia
# [18] = system: HOP-92 NSCLC
# [19] = system: SR leukemia
# [20] = system: CAKI-1 renal
# [21] = system: HCT-15 colon
# [22] = system: U251 CNS
# [23] = system: HT29 colon
# [24] = system: SNB-19 CNS
# [25] = system: MDA-MB-435
# [26] = system: NCI-H226 lung
# [27] = system: MCF7 breast
# [28] = system: OVCAR-5 ovarian
# [29] = system: T-47D breast
# [30] = system: M14 melanoma
# [31] = system: NCI-H522 lung
# [32] = system: HCC-2998 colon
# [33] = system: HCT-116 colon
# [34] = system: OVCAR-8 ovarian
# [35] = system: A498 renal
# [36] = system: NCI/ADR-RES ovarian
# [37] = system: RXF 393 renal
# [38] = system: UO-31 renal
# [39] = system: SK-MEL-5 melanoma
# [40] = system: LOX IMVI melanoma
# [41] = system: TK-10 renal
# [42] = system: HOP-62 NSCLC
# [43] = system: SK-MEL-28 melanoma
# [44] = system: HL-60(TB) leukemia
# [45] = system: NCI-H460 lung
# [46] = system: SK-MEL-2 melanoma
# [47] = system: OVCAR-4 ovarian
# [48] = system: PC-3 prostate
# [49] = system: CCRF-CEM leukemia
# [50] = system: OVCAR-3 ovarian
# [51] = system: NCI-H23 lung
# [52] = system: 786-0 renal
# [53] = system: ACHN renal
# [54] = system: UACC-62 melanoma
# [55] = system: A549 NSCLC
# [56] = system: SN12C renal
# [57] = system: IGROV1 ovarian
# [58] = system: SK-OV-3 ovarian
compound,measurement,setting,value
O=C(CCl)Nc1ccc2c(Nc3cc(O)ccc3Cl)ncnc2c1,GI50,[1],3.9 µM
same,TGI,[1],8.1 µM
same,GI50,[2],4.03 µM
same,TGI,[2],8.06 µM
same,GI50,[3],2.94 µM
same,TGI,[3],7.66 µM
same,GI50,[4],3.27 µM
same,TGI,[4],15.2 µM
same,GI50,[5],2.75 µM
same,TGI,[5],6.25 µM
same,GI50,[6],2.39 µM
same,TGI,[6],5.36 µM
same,GI50,[7],0.929 µM
same,TGI,[7],7.23 µM
same,GI50,[8],3.28 µM
same,TGI,[8],6.56 µM
same,GI50,[9],1.14 µM
same,TGI,[9],3.79 µM
same,GI50,[10],2.02 µM
same,TGI,[10],5.81 µM
same,GI50,[11],3.03 µM
same,TGI,[11],6.87 µM
same,GI50,[12],3.23 µM
same,TGI,[12],7.11 µM
same,GI50,[13],4.02 µM
same,TGI,[13],8.44 µM
same,GI50,[14],3.38 µM
same,TGI,[14],6.84 µM
same,GI50,[15],2.58 µM
same,TGI,[15],5.96 µM
same,GI50,[16],2.65 µM
same,TGI,[16],6.63 µM
same,GI50,[17],0.846 µM
same,TGI,[17],4.03 µM
same,GI50,[18],4.86 µM
same,TGI,[18],9.38 µM
same,GI50,[19],0.758 µM
same,TGI,[19],3.72 µM
same,GI50,[20],3.36 µM
same,TGI,[20],7.45 µM
same,GI50,[21],0.773 µM
same,TGI,[21],3.32 µM
same,GI50,[22],0.828 µM
same,TGI,[22],2.97 µM
same,GI50,[23],1.93 µM
same,TGI,[23],5.78 µM
same,GI50,[24],2.14 µM
same,TGI,[24],5.22 µM
same,GI50,[25],2.21 µM
same,TGI,[25],5.75 µM
same,GI50,[26],5.86 µM
same,TGI,[26],12.3 µM
same,GI50,[27],1.07 µM
same,TGI,[27],5 µM
same,GI50,[28],3.4 µM
same,TGI,[28],7.03 µM
same,GI50,[29],3.51 µM
same,TGI,[29],7.72 µM
same,GI50,[30],3.3 µM
same,TGI,[30],7.26 µM
same,GI50,[31],0.664 µM
same,TGI,[31],2.12 µM
same,GI50,[32],4.9 µM
same,TGI,[32],9.81 µM
same,GI50,[33],0.93 µM
same,TGI,[33],3.99 µM
same,GI50,[34],3.71 µM
same,TGI,[34],10.1 µM
same,GI50,[35],5.51 µM
same,TGI,[35],11.1 µM
same,GI50,[36],3.55 µM
same,TGI,[36],9.31 µM
same,GI50,[37],3.37 µM
same,TGI,[37],7.13 µM
same,GI50,[38],2.69 µM
same,TGI,[38],6 µM
same,GI50,[39],3.22 µM
same,TGI,[39],6.76 µM
same,GI50,[40],0.818 µM
same,TGI,[40],3.64 µM
same,GI50,[41],3.87 µM
same,TGI,[41],8.23 µM
same,GI50,[42],3.27 µM
same,TGI,[42],7.17 µM
same,GI50,[43],3.66 µM
same,TGI,[43],7.97 µM
same,GI50,[44],1.15 µM
same,TGI,[44],4.88 µM
same,GI50,[45],2.33 µM
same,TGI,[45],6.4 µM
same,GI50,[46],3.65 µM
same,TGI,[46],8.19 µM
same,GI50,[47],3.09 µM
same,TGI,[47],7.44 µM
same,GI50,[48],3.02 µM
same,TGI,[48],6.79 µM
same,GI50,[49],0.892 µM
same,TGI,[49],3.02 µM
same,GI50,[50],1.71 µM
same,TGI,[50],5.2 µM
same,GI50,[51],2.73 µM
same,TGI,[51],7.1 µM
same,GI50,[52],1.24 µM
same,TGI,[52],4.56 µM
same,GI50,[53],2.87 µM
same,TGI,[53],6.52 µM
same,GI50,[54],2.38 µM
same,TGI,[54],5.98 µM
same,GI50,[55],4.08 µM
same,TGI,[55],8.26 µM
same,GI50,[56],1.21 µM
same,TGI,[56],4.06 µM
same,GI50,[57],2.12 µM
same,TGI,[57],6.32 µM
same,GI50,[58],4.24 µM
same,TGI,[58],7.94 µM
